From US9670227B2, “Thienopyrimidine derivatives, a process for their preparation and pharmaceutical compositions containing them” (LES LABORATOIRES SERVIER, priority 2013, dated 2017)
Where two headings read alike, the source gives them in different places.

Legend:
Mcl-1 protein = Mcl-1 protein (UniProtKB primary accession number: Q07820) (Homo sapiens, UniProt Q07820); experiment: Inhibition of Mcl-1 by fluorescence polarisation, Method 1; type: binding; conditions: fluorescence polarisation test, Method 2 values are underlined in the patent (underlining not visible here)
Sequence of Mcl-1 protein (Q07820 whole entry): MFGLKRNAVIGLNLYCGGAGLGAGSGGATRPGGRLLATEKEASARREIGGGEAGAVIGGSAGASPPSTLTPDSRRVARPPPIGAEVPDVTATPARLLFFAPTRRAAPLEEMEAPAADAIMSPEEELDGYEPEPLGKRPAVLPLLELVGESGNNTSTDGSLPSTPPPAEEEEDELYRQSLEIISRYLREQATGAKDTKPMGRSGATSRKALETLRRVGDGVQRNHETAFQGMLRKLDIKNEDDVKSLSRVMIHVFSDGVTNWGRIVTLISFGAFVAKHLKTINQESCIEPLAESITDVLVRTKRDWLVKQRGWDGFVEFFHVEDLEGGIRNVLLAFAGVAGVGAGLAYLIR
Outline: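 FP readout of relative binding potency. Mcl-1 5 nM final, fluorescein-labelled ligand 1 nM final; buffer 10 mM HEPES, 150 mM NaCl, 0.05% Tween 20, pH 7.4; 11-pt dilution series, 5% DMSO final.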

[1] = test system: H929 multiple myeloma tumour line; experiment: In vitro cytotoxicity, Microculture Tetrazolium Assay; type: cell-based; conditions: read-out: IC50 (μM) MTT H929
Procedure: The cytotoxicity studies were carried out on the H929 multiple myeloma tumour line.
The cells are distributed onto microplates and exposed to the test compounds for 48 hours.

[2] = Homo sapiens, NCI-H929, 48 h, H929 cells, 48 hours exposure, MTT

| SMILES | IC50 (Mcl-1 protein; read-out: IC50 (M) Mcl-1 FP) [M] | IC50 [1, 2] [µM] | IC50 ([1]; H929 cells, 48 hours exposure, MTT) [µM] | IC50 (Mcl-1 protein; IC50 (M) Mcl-1 FP) [M] | IC50 ([1]; Homo sapiens, NCI-H929, 48 h) [µM] |
| --- | --- | --- | --- | --- | --- |
| Cc1c(-c2c(-c3ccc(Cl)o3)sc3ncnc(OC(Cc4ccccc4OCc4ccncn4)C(=O)O)c23)ccc(OCCN2CCN(C)CC2)c1Cl [Example 370, (2R)-2-{[6-(5-chlorofuran-2-yl)-(5Sa)-5-{3-chloro-2-methyl-4-[2-(4-methylpiperazin-1-yl)ethoxy]phenyl}thieno[2,3-d]pyrimidin-4-yl]oxy}-3-[2-(pyrimidin-4-ylmethoxy)phenyl]propanoic acid] | 8.7e-09 | 0.018 |  |  |  |
| Cc1c(-c2c(-c3ccc(Cl)o3)sc3ncnc(OC(Cc4ccccc4OCc4ccnn4C)C(=O)O)c23)ccc(OCCN2CCN(C)CC2)c1Cl [Example 371, (2R)-2-{[6-(5-chlorofuran-2-yl)-(5Sa)-5-{3-chloro-2-methyl-4-[2-(4-methylpiperazin-1-yl)ethoxy]phenyl}thieno[2,3-d]pyrimidin-4-yl]oxy}-3-{2-[(1-methyl-1H-pyrazol-5-yl)methoxy]phenyl}propanoic acid] | 5.6e-09 | 0.027 |  |  |  |
| CCn1nccc1COc1ccccc1CC(Oc1ncnc2sc(-c3ccc(Cl)o3)c(-c3ccc(OCCN4CCN(C)CC4)c(Cl)c3C)c12)C(=O)O [Example 372, (2R)-2-{[6-(5-chlorofuran-2-yl)-(5Sa)-5-{3-chloro-2-methyl-4-[2-(4-methylpiperazin-1-yl)ethoxy]phenyl}thieno[2,3-d]pyrimidin-4-yl]oxy}-3-{2-[(1-ethyl-1H-pyrazol-5-yl)methoxy]phenyl}propanoic acid] | 9.7e-09 | 0.018 |  |  |  |
| Cc1c(-c2c(-c3ccc(Cl)o3)sc3ncnc(OC(Cc4ccccc4OCc4ccnn4CC(F)(F)F)C(=O)O)c23)ccc(OCCN2CCN(C)CC2)c1Cl [Example 373, (2R)-2-{[6-(5-chlorofuran-2-yl)-(5Sa)-5-{3-chloro-2-methyl-4-[2-(4-methylpiperazin-1-yl)ethoxy]phenyl}thieno[2,3-d]pyrimidin-4-yl]oxy}-3-(2-{[1-(2,2,2-trifluoroethyl)-1H-pyrazol-5-yl]methoxy}phenyl)propanoic acid] | 4.6e-09 | 0.012 |  |  |  |
| Cc1c(-c2c(-c3ccc(Cl)o3)sc3ncnc(OC(Cc4ccccc4OCc4cnccn4)C(=O)O)c23)ccc(OCCN2CCN(C)CC2)c1Cl [Example 374, (2R)-2-{[6-(5-chlorofuran-2-yl)-(5Sa)-5-{3-chloro-2-methyl-4-[2-(4-methylpiperazin-1-yl)ethoxy]phenyl}thieno[2,3-d]pyrimidin-4-yl]oxy}-3-[2-(pyrazin-2-ylmethoxy)phenyl]propanoic acid] | 9.2e-09 | 0.038 |  |  |  |
| Cc1c(-c2c(-c3ccc(Cl)o3)sc3ncnc(OC(Cc4ccccc4OCc4cncnc4)C(=O)O)c23)ccc(OCCN2CCN(C)CC2)c1Cl [Example 375, (2R)-2-{[6-(5-chlorofuran-2-yl)-(5Sa)-5-{3-chloro-2-methyl-4-[2-(4-methylpiperazin-1-yl)ethoxy]phenyl}thieno[2,3-d]pyrimidin-4-yl]oxy}-3-[2-(pyrimidin-5-ylmethoxy)phenyl]propanoic acid] | 5.6e-09 | 0.081 |  |  |  |
| Cc1c(-c2c(-c3ccc(Cl)o3)sc3ncnc(OC(Cc4ccccc4OCc4cocn4)C(=O)O)c23)ccc(OCCN2CCN(C)CC2)c1Cl [Example 376, (2R)-2-{[6-(5-chlorofuran-2-yl)-(5Sa)-5-{3-chloro-2-methyl-4-[2-(4-methylpiperazin-1-yl)ethoxy]phenyl}thieno[2,3-d]pyrimidin-4-yl]oxy}-3-[2-(1,3-oxazol-4-ylmethoxy)phenyl]propanoic acid] | 2e-09 | 0.076 |  |  |  |
| Cc1c(-c2c(-c3ccc(Cl)o3)sc3ncnc(OC(Cc4ccccc4OCC4CCCO4)C(=O)O)c23)ccc(OCCN2CCN(C)CC2)c1Cl [Example 377, (2R)-2-{[6-(5-chlorofuran-2-yl)-(5Sa)-5-{3-chloro-2-methyl-4-[2-(4-methylpiperazin-1-yl)ethoxy]phenyl}thieno[2,3-d]pyrimidin-4-yl]oxy}-3-{2-[(2S)-tetrahydrofuran-2-ylmethoxy]phenyl}propanoic acid] | 3.8e-09 |  | 0.047 |  |  |
| COc1cc(-c2sc3ncnc(OC(Cc4ccccc4OC)C(=O)O)c3c2-c2ccc(OCCN3CCN(C)CC3)c(Cl)c2C)ccc1F [Example 378, (2R)-2-{[(5Sa)-5-{3-chloro-2-methyl-4-[2-(4-methylpiperazin-1-yl)ethoxy]phenyl}-6-(4-fluoro-3-methoxyphenyl)thieno[2,3-d]pyrimidin-4-yl]oxy}-3-(2-methoxyphenyl)propanoic acid] | 3.2e-09 | 0.202 |  |  |  |
| COc1cc(-c2sc3ncnc(OC(Cc4ccccc4OCC4CCCO4)C(=O)O)c3c2-c2ccc(OCCN3CCN(C)CC3)c(Cl)c2C)ccc1F [Example 379, (2R)-2-{[(5Sa)-5-{3-chloro-2-methyl-4-[2-(4-methylpiperazin-1-yl)ethoxy]phenyl}-6-(4-fluoro-3-methoxyphenyl)thieno[2,3-d]pyrimidin-4-yl]oxy}-3-{2-[(2R)-tetrahydrofuran-2-ylmethoxy]phenyl}propanoic acid] | 1.3e-08 | 0.174 |  |  |  |
| COc1cc(-c2sc3ncnc(OC(Cc4ccccc4OCC(F)(F)F)C(=O)O)c3c2-c2ccc(OCCN3CCN(C)CC3)c(Cl)c2C)ccc1F [Example 380, (2R)-2-{[(5Sa)-5-{3-chloro-2-methyl-4-[2-(4-methylpiperazin-1-yl)ethoxy]phenyl}-6-(4-fluoro-3-methoxyphenyl)thieno[2,3-d]pyrimidin-4-yl]oxy}-3-[2-(2,2,2-trifluoroethoxy)phenyl]propanoic acid] | 1.1e-08 | 0.162 |  |  |  |
| COc1cc(-c2sc3ncnc(OC(Cc4ccccc4OCc4ccccn4)C(=O)O)c3c2-c2ccc(OCCN3CCN(C)CC3)c(Cl)c2C)ccc1F [Example 381, (2R)-2-{[(5Sa)-5-{3-chloro-2-methyl-4-[2-(4-methylpiperazin-1-yl)ethoxy]phenyl}-6-(4-fluoro-3-methoxyphenyl)thieno[2,3-d]pyrimidin-4-yl]oxy}-3-[2-(pyridin-2-ylmethoxy)phenyl]propanoic acid] | 1.3e-08 | 0.119 |  |  |  |
| COc1cc(-c2sc3ncnc(OC(Cc4ccccc4OCc4ccnc(C(F)(F)F)n4)C(=O)O)c3c2-c2ccc(OCCN3CCN(C)CC3)c(Cl)c2C)ccc1F [Example 382, (2R)-2-{[(5Sa)-5-{3-chloro-2-methyl-4-[2-(4-methylpiperazin-1-yl)ethoxy]phenyl}-6-(4-fluoro-3-methoxyphenyl)thieno[2,3-d]pyrimidin-4-yl]oxy}-3-(2-{[2-(trifluoromethyl)pyrimidin-4-yl]methoxy}phenyl)propanoic acid] | 7.1e-09 | 0.033 |  |  |  |
| COc1nccc(COc2ccccc2CC(Oc2ncnc3sc(-c4ccc(F)c(OC)c4)c(-c4ccc(OCCN5CCN(C)CC5)c(Cl)c4C)c23)C(=O)O)n1 [Example 383, (2R)-2-{[(5Sa)-5-{3-chloro-2-methyl-4-[2-(4-methylpiperazin-1-yl)ethoxy]phenyl}-6-(4-fluoro-3-methoxyphenyl)thieno[2,3-d]pyrimidin-4-yl]oxy}-3-{2-[(2-methoxypyrimidin-4-yl)methoxy]phenyl}propanoic acid] | 5.6e-09 | 0.03 |  |  |  |
| CCn1nccc1COc1ccccc1CC(Oc1ncnc2sc(-c3ccc(F)c(OC)c3)c(-c3ccc(OCCN4CCN(C)CC4)c(Cl)c3C)c12)C(=O)O [Example 384, (2R)-2-{[(5Sa)-5-{3-chloro-2-methyl-4-[2-(4-methylpiperazin-1-yl)ethoxy]phenyl}-6-(4-fluoro-3-methoxyphenyl)thieno[2,3-d]pyrimidin-4-yl]oxy}-3-{2-[(1-ethyl-1H-pyrazol-5-yl)methoxy]phenyl}propanoic acid] | 3.8e-09 | 0.053 |  |  |  |
| CCCn1nccc1COc1ccccc1CC(Oc1ncnc2sc(-c3ccc(F)c(OC)c3)c(-c3ccc(OCCN4CCN(C)CC4)c(Cl)c3C)c12)C(=O)O [Example 385, (2R)-2-{[(5Sa)-5-{3-chloro-2-methyl-4-[2-(4-methylpiperazin-1-yl)ethoxy]phenyl}-6-(4-fluoro-3-methoxyphenyl)thieno[2,3-d]pyrimidin-4-yl]oxy}-3-{2-[(1-propyl-1H-pyrazol-5-yl)methoxy]phenyl}propanoic acid] | 3.5e-09 | 0.048 |  |  |  |
| COc1cc(-c2sc3ncnc(OC(Cc4ccccc4OCc4cnccn4)C(=O)O)c3c2-c2ccc(OCCN3CCN(C)CC3)c(Cl)c2C)ccc1F [Example 386, (2R)-2-{[(5Sa)-5-{3-chloro-2-methyl-4-[2-(4-methylpiperazin-1-yl)ethoxy]phenyl}-6-(4-fluoro-3-methoxyphenyl)thieno[2,3-d]pyrimidin-4-yl]oxy}-3-[2-(pyrazin-2-ylmethoxy)phenyl]propanoic acid] | 1e-08 | 0.075 |  |  |  |
| COCCOc1ccccc1CC(Oc1ncnc2sc(-c3ccc(F)c(OC)c3)c(-c3ccc(OCCN4CCN(C)CC4)c(Cl)c3C)c12)C(=O)O [Example 387, (2R)-2-{[(5Sa)-5-{3-chloro-2-methyl-4-[2-(4-methylpiperazin-1-yl)ethoxy]phenyl}-6-(4-fluoro-3-methoxyphenyl)thieno[2,3-d]pyrimidin-4-yl]oxy}-3-[2-(2-methoxyethoxy)phenyl]propanoic acid] |  |  |  | 4e-09 | 0.202 |
| CCc1sc2ncnc(OC(Cc3ccccc3)C(=O)O)c2c1-c1ccc(OCC(=O)N(C)C)c(Cl)c1C [Example 390, (2R)-2-[((5Sa)-5-{3-chloro-4-[2-(dimethylamino)-2-oxoethoxy]-2-methylphenyl}-6-ethylthieno[2,3-d]pyrimidin-4-yl)oxy]-3-phenylpropanoic acid] | 4e-08 | 20 |  |  |  |
